The text below walks through data of PMC4013053, “Identification of Selective Small Molecule Inhibitors of the Nucleotide-Binding Oligomerization Domain 1 (NOD1) Signaling Pathway” (PLoS ONE, 2014).

≈ marks a conversion by molar mass, not a printed value. Read-outs that look alike come from different tables or passages of the source.

Data set [1] concerns the target T1, NOD1 (Homo sapiens, UniProt Q9Y239).
T1 sequence (Q9Y239 1-953): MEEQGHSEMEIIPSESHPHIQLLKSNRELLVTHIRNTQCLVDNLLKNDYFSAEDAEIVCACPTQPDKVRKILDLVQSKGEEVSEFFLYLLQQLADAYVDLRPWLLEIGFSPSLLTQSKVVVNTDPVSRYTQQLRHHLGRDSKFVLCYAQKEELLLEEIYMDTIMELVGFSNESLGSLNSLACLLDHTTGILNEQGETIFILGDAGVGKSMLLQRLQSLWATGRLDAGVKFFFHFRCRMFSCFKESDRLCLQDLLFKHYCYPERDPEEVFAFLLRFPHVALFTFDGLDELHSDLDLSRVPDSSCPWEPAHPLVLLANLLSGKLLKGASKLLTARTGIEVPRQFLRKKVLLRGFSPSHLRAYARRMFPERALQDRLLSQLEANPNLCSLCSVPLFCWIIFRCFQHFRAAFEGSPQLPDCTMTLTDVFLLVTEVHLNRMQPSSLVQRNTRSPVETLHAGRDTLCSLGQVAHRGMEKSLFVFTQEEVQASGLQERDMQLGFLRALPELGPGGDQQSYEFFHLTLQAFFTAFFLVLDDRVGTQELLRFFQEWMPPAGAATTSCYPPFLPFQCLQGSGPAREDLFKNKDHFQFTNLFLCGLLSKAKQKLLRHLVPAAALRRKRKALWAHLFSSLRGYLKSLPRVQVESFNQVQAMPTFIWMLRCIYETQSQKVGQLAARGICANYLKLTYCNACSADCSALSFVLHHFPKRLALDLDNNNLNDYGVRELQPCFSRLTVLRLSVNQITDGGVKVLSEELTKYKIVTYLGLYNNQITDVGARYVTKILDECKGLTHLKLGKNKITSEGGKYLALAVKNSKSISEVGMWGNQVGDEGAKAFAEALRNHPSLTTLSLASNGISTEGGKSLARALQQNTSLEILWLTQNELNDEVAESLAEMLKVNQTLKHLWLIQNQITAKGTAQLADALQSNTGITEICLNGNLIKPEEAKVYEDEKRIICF
Nature of the data set: iE-DAP-stimulated IL-8 release in 293/hNOD1 cells. The format is cell-based. The protocol: Inhibitors of iE-DAP-stimulated IL-8 release were screened in a 1536-well assay in which 293/hNOD1 cells (5000 cells/well) in DMEM high glucose medium supplemented with 0.1% FBS and 10 µg/mL Blasticidin S were stimulated with 60 ng/mL (200 nM) iE-DAP (EC80) in the presence of 10 µM compounds. After 24 hours the amount of IL-8 secreted into the medium was determined by homogeneous time resolved fluorescence (HTRF) assay by the direct addition of a 1∶1 mix of europium cryptate and XL665-conjugated anti-IL-8 antibodies according to the manufacturer’s instructions (Cisbio). Fluorescence was measured after 2 hours in a ViewLux imager using UMB-AMC excitation and 618–671 nm emission filters (Perkin Elmer). […] Inhibition of TNFR1-induced IL-8 release was performed with 293/hNOD1 cells stimulated with 20 ng/mL (∼EC95) rhTNFα.
A high-throughput screen of about 2.2 million compounds was conducted for inhibitors of the NOD1 signaling pathway using suppression of iE-DAP stimulated IL-8 secretion in HEK293 cells stably expressing human NOD1 (293/hNOD1 cells). […] These assays were chosen to assess the selectivity of hits because the signaling pathways activated by these receptors converge at the level of the TAB/TAK1/IKK complex.

In data set [2] the test system is NOD1. Also on record: method as in PMID 22062585. The note with it: read-out: NOD1 IC50 (nucleotide binding); cited from earlier work.
The next data set concerns NOD2. Also on record: method as in PMID 22549783. Conditions: read-out: NOD2 IC50 (nucleotide binding); cited from earlier work.
Data set [3] in a line: Chromatographic hydrophobicity index (Chrom log D). The format is physicochemical. Conditions: pH 7.4. The text has this: (§1) Physicochemical analyses of compounds were completed at GSK.
Data set [4] is described as follows: Permeability across an artificial membrane. The format is in vitro ADME. Conditions: PAMPA.
From the text: as §1

For a further data set, the target named is human serum albumin (Homo sapiens, UniProt P02768). Nature of the data set: Human serum albumin (HSA) binding. The format is in vitro ADME.
From the text: as §1

The subject of another data set is α1-acid glycoprotein. In words: α1-acid glycoprotein (AGP) binding. The format is in vitro ADME.
From the text: as §1

Data set [5] in a line: Immobilized artificial membrane (IAM) binding. The format is physicochemical.
From the text: as §1

The nature of another data set: CLND solubility. The format is physicochemical. The note with it: phosphate buffered saline with 5% DMSO, pH 7.4, aqueous buffer, kinetic from dmso stock; 5% DMSO pH7.4 phosphate buffered saline.
From the text: as §1

In data set [6] the test system is NOD1. Conditions: HEK293T cells, read-out: IC50 NF-κB reporter, cited from earlier work.
For data set [7], the system named is NOD1 induced NF-κB and MAPK pathways. Nature of the data set: Western blotting of IκBα and phospho-MAPKs in Tri-DAP stimulated 293/hNOD1 cells. The note with it: 50 µg/mL Tri-DAP 1 hour, immunoblotting. In kind it is cell-based, human. The protocol: Confluent cultures of 293/hNOD1 and -hNOD2 cells seeded in 24-well plates were serum-starved over-night, pre-incubated for 1 hour with compound and then stimulated for 1 hour with either 50 µg/mL Tri-DAP or 25 µg/mL MDP, respectively. Whole cell lysates were prepared in 1X cell lysis buffer (Cell Signaling Technology) supplemented with additional protease, aminopeptidase and phosphatase inhibitors (protease inhibitor cocktail set III, EMD Biosciences; phosphatase inhibitor sets II and III, Sigma-Aldrich). The levels of phosphorylated and total p38, JNK, ERK1/2 and total IκBα were determined by immunoblotting of ∼20 µg protein per sample using the following primary antibodies: phospho-p38 MAPK (12F8, #4631), p38 MAPK (#9212), phospho-JNK (#9251), JNK (#9252) and IκBα (#9242) all purchased from Cell Signaling Technology, and phospho-ERK1/2 (sc-7383) and ERK1/2 (sc-94) antibodies from Santa Cruz Biotechnology.

Setting [8] is: iE-DAP-stimulated IL-8 production in 293/hNOD1 cells, SAR figures, read-out: NOD1 XC50.
[9] abbreviates: HEK293 stably expressing human NOD1, IL-8 released into medium, read-out: IC50 293/hNOD1 iE-DAP.

human serum albumin, sequence (P02768 25-609): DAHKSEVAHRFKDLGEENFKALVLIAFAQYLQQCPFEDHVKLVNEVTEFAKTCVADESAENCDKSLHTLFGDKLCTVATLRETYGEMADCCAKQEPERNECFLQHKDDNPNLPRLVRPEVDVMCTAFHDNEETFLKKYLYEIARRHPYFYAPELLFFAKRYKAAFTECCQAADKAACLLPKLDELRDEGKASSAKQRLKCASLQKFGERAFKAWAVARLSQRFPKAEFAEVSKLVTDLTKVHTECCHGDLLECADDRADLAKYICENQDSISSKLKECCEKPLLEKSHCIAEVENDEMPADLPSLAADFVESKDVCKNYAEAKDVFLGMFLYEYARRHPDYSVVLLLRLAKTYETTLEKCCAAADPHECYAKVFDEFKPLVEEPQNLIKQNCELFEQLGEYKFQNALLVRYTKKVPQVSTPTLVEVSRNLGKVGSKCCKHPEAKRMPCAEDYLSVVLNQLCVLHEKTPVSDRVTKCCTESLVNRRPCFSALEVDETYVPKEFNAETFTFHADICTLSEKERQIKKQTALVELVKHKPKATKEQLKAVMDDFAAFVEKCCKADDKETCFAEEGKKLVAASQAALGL

As to `CC(=O)Nc1ccc2nc(NC(=O)c3cccc(NS(=O)(=O)c4ccc(C)cc4)c3)sc2c1` [Compound 18], the IC50 on NOD1 [1] (setting [8]) is 1.4 ± 0.3 µM.

On to `Cc1cccc(CSc2nc3c(c(=O)[nH]c(=O)n3C)n2Cc2ccccc2)c1` [Compound 5], for which, at NOD1 [1] (setting [8]), the IC50 is 8.9 ± 1.6 µM.

On to `CCc1ccc(S(=O)(=O)Nc2cccc(-n3c(C)nc4ccccc4c3=O)c2)s1` [Compound 14], for which, on NOD1 [1] (setting [9]), the IC50 turned out to be 15.1 µM.

For `Cn1c(=O)[nH]c(=O)c2c1nc(SCCCc1ccccc1)n2Cc1ccccc1` [Compound 4], the IC50 at NOD1 [1] (setting [8]) turned out to be 8.7 ± 1.5 µM.

In the case of `COc1ccc(S(=O)(=O)Nc2cccc(C(=O)Nc3ccc4nc(C)sc4c3)c2)cc1` [Compound 20], at NOD1 [1] (setting [8]), the IC50 came to 2.3 ± 0.8 µM.

In the case of `Cn1c(=O)[nH]c(=O)c2c1nc(CCCSc1ccccc1)n2Cc1ccccc1` [Compound 2], the IC50 on NOD1 [1] (setting [8]) was 2.5 ± 1.3 µM.

In the case of `Cc1cc(=O)n(-c2ccc(Cl)c(NS(=O)(=O)c3ccccc3F)c2)c(C)n1` [Compound 29, N-(2-chloro-5-(2,4-dimethyl-6-oxopyrimidin-1(6H)-yl)phenyl)-2-fluorobenzenesulfonamide], the IC50 on NOD1 [1] (setting [8]) is 25 ± 17.5 µM.

Turning to `Cc1ccc(S(=O)(=O)Nc2cc(-n3c(C)nc4ccccc4c3=O)ccc2Cl)cc1` [Compound 24], the IC50 at NOD1 [1] (setting [8]) is 0.2 ± 0.2 µM.

For `Cc1nc2ccc(Cl)cc2c(=O)n1-c1ccc(Cl)c(NS(=O)(=O)c2ccccc2F)c1` [Compound 26, N-(2-chloro-5-(6-chloro-2-methyl-4-oxoquinazolin-3(4H)-yl)phenyl)-2-fluorobenzenesulfonamide], the IC50 at NOD1 [1] (setting [8]) worked out at 0.026 µM.

As for `Cc1nc2ccccc2c(=O)n1-c1ccc(F)c(NS(=O)(=O)c2cc(Cl)ccc2Cl)c1` [Compound 12], at NOD1 [1] (setting [8]), the IC50 amounted to 1.2 ± 0.1 µM.

For `Nc1ncnc2c1ncn2[C@@H]1O[C@H](COP(=O)(O)OP(=O)(O)OP(=O)(O)O)[C@@H](O)[C@H]1O` [ATP], the IC50 in the data set on NOD1 [2] was ~0.015 µM; with NOD2, ~0.06 µM.

Regarding `Cc1nc2cc(Cl)ccc2c(=O)n1-c1ccc(Cl)c(NS(=O)(=O)c2ccccc2F)c1` [Compound 27, N-(2-chloro-5-(7-chloro-2-methyl-4-oxoquinazolin-3(4H)-yl)phenyl)-2-fluorobenzenesulfonamide], the IC50 at NOD1 [1] (setting [8]) turned out to be 2.5 ± 1.2 µM.

As for `Cc1ccc(S(=O)(=O)Nc2cccc(C(=O)Nc3nc4ccc([N+](=O)[O-])cc4s3)c2)cc1` [Compound 15], the IC50 at NOD1 [1] (setting [9]) worked out at 0.2 µM; on NOD1 [1] (setting [8]), 0.19 ± 0.03 µM.

Turning to `O=C(Nc1ccc2c(c1)OCO2)c1cccc(NS(=O)(=O)c2ccc(Cl)cc2)c1` [Compound 21], the chromatographic logD in data set [3] came to 5.17. In addition, the Papp in [4] was 23 ×10⁻⁶ cm/s. This compound also displayed an HSA binding at human serum albumin of 98.01%. The compound further came in with an AGP binding with α1-acid glycoprotein of 87.41%. For the same compound, the IC50 at NOD1 [1] (setting [8]) was found to be 3.7 ± 1.4 µM. The same compound registered an IAM binding in data set [5] of 2.40 log K. Moreover, the solubility in the data set “CLND solubility” worked out at 46 µM (≈ 19.8 µg/mL).

Consider `Cc1nc2ccccc2c(=O)n1-c1ccc(Cl)c(NS(=O)(=O)c2ccc3c(c2)OCCO3)c1` [Compound 23], for which the IC50 on NOD1 [1] (setting [8]) amounted to 0.1 ± 0.04 µM.

For the compound `Cn1c(=O)[nH]c(=O)c2c1nc(SCCc1ccccc1)n2Cc1ccccc1` [Compound 1], at NOD1 [1] (setting [8]), the IC50 was 0.4 ± 0.08 µM.

As to `N#Cc1ccc(-c2csc(NC(=O)c3cccc(NS(=O)(=O)c4ccc(Cl)cc4)c3)n2)cc1` [Compound 19], at NOD1 [1] (setting [8]), the IC50 came out at 2 ± 0.5 µM.

As to `Cc1ccc(S(=O)(=O)n2c(N)nc3ccccc32)cc1` [ML130], in the data set on NOD1 [6], the IC50 was 0.56 µM.

Regarding `C/C=C/Cn1c(SCCc2ccccc2)nc2c1c(=O)[nH]c(=O)n2C` [Compound 6], the IC50 at NOD1 [1] (setting [8]) was determined as 9.6 ± 2.8 µM.

As to `Cc1nc2ccccc2c(=O)n1-c1ccc(F)c(NS(=O)(=O)c2ccccc2F)c1` [Compound 8], the chromatographic logD in [3] worked out at 3.24. In data set [4], this compound came in with a Papp of 35 ×10⁻⁶ cm/s. Further, the HSA binding on human serum albumin is recorded as 96.05%. Further, the AGP binding in the data set on α1-acid glycoprotein is 80.38%. Further, the IC50 at NOD1 [1] (setting [9]) was found to be 0.7 µM. The IAM binding in data set [5] is 1.42 log K. Moreover, the solubility in the data set “CLND solubility” came out at 391 µM (≈ 167 µg/mL).

Take `Cc1ccc(S(=O)(=O)Nc2cc(-n3c(C)nc4ccccc4c3=O)ccc2F)cc1C` [Compound 11]: the IC50 on NOD1 [1] (setting [8]) is 1.1 ± 0.7 µM.

`C/C=C/Cn1c(SCCCc2ccccc2)nc2c1c(=O)[nH]c(=O)n2C` [ML146]: the IC50 with NOD1 [6] (ref Magnuson et al, 2010) is 1.5 µM.

For the compound `CCCCCCSc1nc2c(c(=O)[nH]c(=O)n2C)n1Cc1ccccc1` [Compound 3], the IC50 on NOD1 [1] (setting [8]) stood at 4.7 ± 1.4 µM.

Consider `Cn1c(=O)[nH]c(=O)c2c1nc(SCc1ccccc1)n2Cc1ccccc1` [Compound 7], for which the IC50 at NOD1 [1] (setting [8]) was 37.3 ± 18.1 µM.

For the compound `Cc1nc(C)n(-c2ccc(Cl)c(NS(=O)(=O)c3ccccc3F)c2)c(=O)c1C` [Compound 28, N-(2-chloro-5-(2,4,5-trimethyl-6-oxopyrimidin-1(6H)-yl)phenyl)-2-fluorobenzenesulfonamide], on NOD1 [1] (setting [8]), the IC50 worked out at 3.5 ± 0.5 µM.

For `Cc1nc2ccccc2c(=O)n1-c1ccc(F)c(NS(=O)(=O)c2ccc(Cl)s2)c1` [Compound 9], in [7], the “effect on Tri-DAP induced p-JNK, p-p38 and IκBα responses” value was “reduced both phospho-JNK and the weaker phospho-p38 levels while levels of IκBα were increased”. Further, the IC50 at NOD1 [1] (setting [9]) was 0.7 µM.

In turn, `Cc1nc2ccccc2c(=O)n1-c1ccc(F)c(NS(=O)(=O)c2cccs2)c1` [Compound 13] gave a chromatographic logD in data set [3] of 2.87. The Papp in data set [4] stood at 26 ×10⁻⁶ cm/s. This compound also yielded an HSA binding on human serum albumin of 96.08%. For the same compound, the AGP binding with α1-acid glycoprotein is 81.23%. Besides, the IC50 at NOD1 [1] (setting [8]) is 2.3 ± 1.7 µM. In data set [5], the IAM binding was 1.36 log K. Also, in “CLND solubility”, the solubility was 423 µM (≈ 176 µg/mL).

Consider `COc1ccc(Cl)cc1S(=O)(=O)Nc1cc(-n2c(C)nc3ccccc3c2=O)ccc1Cl` [Compound 25], for which, on NOD1 [1] (setting [8]), the IC50 worked out at 0.5 ± 0.1 µM.

With `Cc1nc2ccccc2c(=O)n1-c1ccc(F)c(NS(=O)(=O)c2ccc(F)cc2F)c1` [Compound 10], the IC50 on NOD1 [1] (setting [8]) is 2.2 ± 3.3 µM.

In the case of `Cc1ccc(S(=O)(=O)Nc2cccc(C(=O)Nc3ccc4nc(C)sc4c3)c2)c(F)c1` [Compound 17], at NOD1 [1] (setting [8]), the IC50 came out at 0.76 ± 0.1 µM.
